These results are taken from patent EP4653001A1, “TREATMENT, DIAGNOSIS AND/OR PROGNOSIS OF MITOCHONDRIAL DISEASES” (Universidad Autónoma de Madrid, priority 2024, dated 2025).

The test system of assay [1] is 143B cell lines. The assay is described as follows: Cell viability of CRISPR knock-out 143B cell lines treated with ETC inhibitors. Type of assay: cell-based. As for the experimental part:
All cell lines, 143b, HeLa, U2OS, and transmitochondrial cybrids carrying mutation in CI (ND2), CIII (CytB) or CIV (Cox2) subunits, were maintained in DMEM high glucose (HyClone), 10% FBS and 1% P/S at 37°C with 5% CO2. Mitochondrial mutant cells were cultured with supplementation of 50 µg/mL uridine. The selected cancer cell lines with different levels of malic enzyme (HCC15, KYSE410, CAKI1, J82, MDAMB453, Colo320, NCIH1703) were obtained from the DSMZ-German Collection of Microorganisms and Cell Cultures GmbH and cultured in the same DMEM 10% FBS medium. OCI-Lys3 and RCH-ACV cell lines (cells in suspension), were obtained from the same repository and cultured in RPMI 10% FBS medium. Transfections for gain- and loss-of-function studies were performed according to the manufacturer's instructions using the polyfect reagent (Qiagen, 301107). For cell number and proliferation experiments, cells were seeded in 12 or 6-well plates and allowed to proliferate for the specified durations. Subsequently, cells were trypsinized and quantified using a hemocytometer (NanoEnTek, DHC-N01). Cell viability was quantified using propidium iodide (PI; 50 µg/ml) staining.
Generation of knockout cell lines using CRISPR-Cas9 technology was performed with the lenti-CRISPR v2 vector (Addgene #52961). Guide sequences are: • sgGFPT1, 5-[…]-3 (SEQ ID NO: 1); • sgG6PD, 5-[…]-3 (SEQ ID NO: 2); • sgPHGDH, 5-[…]-3 (SEQ ID NO: 3); • sgMPC1, 5-[…]-3 (SEQ ID NO: 4) • sgPC, 5-CAGGCCCGGAACACACGGA-3 (SEQ ID NO: 5); • sgACLY, 5-[…]-3 (SEQ ID NO: 6); • sgME1, 5-[…]-3 (SEQ ID NO: 7).
To investigate glucose-dependent alternative metabolic pathways that become essential upon ETC inhibition, we generated through CRISPR/Cas9 technology, knock-out (KO) 143B cell lines for each of the following rate-limiting enzymes and transporters. We selected glucose 6 phosphate dehydrogenase (G6PD) for the PPP, Glutamine-Fructose-6-Phosphate Transaminase 1 (GFPT1) for the hexosamine pathway, Phosphoglycerate Dehydrogenase (PHGDH) for the serine biosynthesis pathway and Mitochondrial Pyruvate Carrier 1 (MPC1) to prevent pyruvate entry into the mitochondria. These KO and Control cells were treated with two specific ETC inhibitors (Piericidin A that targets Complex I and Antimycin A that targets Complex III) and cell viability was assessed after 3 days of treatment. […] We took advantage of the fruit fly Drosophila melanogaster model, as it is cost- and time-efficient and recapitulate a wide range of phenotypes seen in patients with metabolic and mitochondrial disorders. We obtained flies carrying mutations in Zw and Pgd genes (named: Pgd^39 Zw^lo2a), corresponding to human orthologs G6PD and 6PGD respectively. […]

The test system of assay [2] is mouse cortical neurons. The assay is described as follows: L-lactate release in neurons (Lactate-Glo). The assay is classed as cell-based. As for the experimental part: (§1) Primary cultures of C57BL/6 mouse cortical neurons were prepared from embryos between embryonic days 16.5 and 17.5 and seeded onto pre-treated plates coated with Poly-L-lysine hydrobromide (500 µg/ml). We used Neurobasal medium without D-glucose and sodium pyruvate (ThermoFisher) to modulate D-glucose levels, depending on the experiment (2.5 mM, 5 mM, or 25 mM).
L-lactate levels were measured in mouse cortical neurons using Lactate-Glo™ Assay (Promega, #J5021) following the original protocol.
Increased lactate secretion is considered a good indicator of enhanced glycolytic rates, which is a common feature of ETC-inhibited cells as they switch from OXPHOS to glycolysis to maintain ATP levels. […] We culture 143B cells in the presence of Piericidin for 24 h and PPP activity and lactate release, as a proxy of glycolysis, were measured. As expected, lactate detection in the media was higher in CI-inhibited cells. […] Next, we wonder if in this context, glucose can be overused by glycolysis and therefore diverted away from the PPP. Diseases associated with impaired mitochondrial function negatively impact high energy demanding tissues such as the brain. As such, neurons that are highly sensitive to ETC inhibition also rely strongly on glucose metabolism. Thus, we used mouse cortical neurons to determine the rates of glycolysis and PPP as glucose levels become limiting. Control and Piericidin treated neurons where cultured in media containing supraphysiological (25 mM), physiological (5 mM) or subphysiological concentrations of glucose (2,5 mM). […] Decreased PPP activity under low glucose (2,5 mM) correlated with a rapid decline in NADPH/NADP+ levels in CI-inhibited cells. Conversely, glucose availability had no effect on ATP levels at this timepoint.

Assay [3] concerns primary neurons. In words: Neuron axon morphology (immunofluorescence). The assay is classed as cell-based, mouse. The settings on record: CI inhibition, 100 nM 24 h, extensive axon degeneration. As for the experimental part:
as §1
Neuron axon morphology was quantified in primary neurons exposed to DMSO or 100 nM piericidin for 24 h. Neurons were fixed with 4% paraformaldehyde for 10 min, blocked, and permeabilized in 0.1% Triton X-100 (Tx)-PBS with 10% fetal bovine serum for 15 minutes at room temperature. Then, neurons were incubated with the primary BIII-Tubulin antibody (1:500, ab78078, Abcam) in 0.1% Tx/10% FBS-PBS overnight at 4°C. Subsequently, wells were rinsed several times in PBS before applying the fluorochrome-conjugated secondary antibody (ThermoScientific) in 0.1% Tx/10% FBS-PBS for 1h at room temperature. Neurons were finally washed in PBS, and DAPI was added prior to the microscopic analysis. Acquired confocal images were quantified by measuring the BIII-Tubulin fluorescent integrated density and normalized by the number of DAPI-positive nuclei.

In the case of `CC=C(C)C(O)C(C)C=C(C)C=CCC(C)=CCc1nc(OC)c(OC)c(O)c1C` (stereo not drawn) [Piericidin, Piericidin A], the cell viability entry in assay [1] (G6PD KO 143B cells, after 3 days of treatment) is on record as “sensitive”. The survival or proliferation entry in assay [1] (KO cells for GFPT1, PHGDH or MPC1, after 3 days of treatment) is given as “no differences”. Besides, the lactate secretion entry in assay [2] (5 mM glucose, trend, did not reach statistical significance) is “increased lactated secretion”. In addition, the levels of lactate result in assay [2] (limited glucose availability (2,5 mM), 100 nM, 16 h) is on record as “preserving”. For the same molecule, the lactate entry in assay [2] (neurons cultured in 25 mM glucose, 100 nM, 16 h) is recorded as “significantly upregulation”. Besides, in assay [3], the neuron morphology entry is “significant morphological alterations”.
